Results taken from patent US5391540A, “Substituted pyridine compounds” (Rohm and Haas Company, priority 1993, dated 1995).

Key:
Assay type in all cases: in vivo
Bygr = assay: plant injury after spraying emerged plants (Table D); set-up: scale not given here
Procedure, shortened: (§1)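 Injury to emerged plants was assessed after spraying. Plants came from seeds or propagules sown into sterilized, sieved silt-loam topsoil under a 1.27 cm layer of 50% topsoil with peat moss, vermiculite and wetting agent, then kept on greenhouse capillary mats with subirrigation.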

Whez = assay: as above; set-up: scale not given here
Procedure, shortened: as §1

Rice = assay: as above; set-up: scale not given here
Procedure, shortened: as §1

Prmi = assay: as above; set-up: scale not given here
Procedure, shortened: as §1

Grft = assay: as above; set-up: scale not given here
Procedure, shortened: as §1

Mogl = assay: as above; set-up: scale not given here
Procedure, shortened: as §1

Grso = assay: as above; set-up: scale not given here
Procedure, shortened: as §1

Cobu = assay: as above; set-up: scale not given here
Procedure, shortened: as §1

Lacg = assay: as above; set-up: scale not given here
Procedure, shortened: as §1

Corn = assay: as above; set-up: scale not given here
Procedure, shortened: as §1

Sobe = assay: as above; set-up: scale not given here
Procedure, shortened: as §1

Downy Brome = assay: Pre-emergent herbicidal activity (Table A); settings: Bromus tectorum, pre-emergence, Dobr, 11.2 kg/ha, 10-14 days, read-out: herbicidal rating (% inhibition)
Procedure, shortened: (§2)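 Percent inhibition per species, scored on a rating scale, after pre-emergent soil incorporation: test compound in acetone or water carrier mixed into cover soil, layered over seeded topsoil or vegetative propagules.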

Morningglory = assay: Pre-emergent herbicidal activity (Table A); settings: Ipomoea, pre-emergence, Mogl, 11.2 kg/ha, 10-14 days, read-out: herbicidal rating (% inhibition)
Procedure, shortened: as §2

Cocklebur = assay: Pre-emergent herbicidal activity (Table A); settings: Xanthium strumarium, pre-emergence, Cobu, 11.2 kg/ha, 10-14 days, read-out: herbicidal rating (% inhibition)
Procedure, shortened: as §2

Barnyardgrass = assay: Pre-emergent herbicidal activity (Table A); settings: Echinochloa crus-galli, pre-emergence, Bygr, 11.2 kg/ha, 10-14 days, read-out: herbicidal rating (% inhibition)
Procedure, shortened: as §2

Yellow Nutsedge = assay: Pre-emergent herbicidal activity (Table A); settings: Cyperus, pre-emergence, Yens, 11.2 kg/ha, 10-14 days, read-out: herbicidal rating (% inhibition)
Procedure, shortened: as §2

Velvetleaf = assay: Pre-emergent herbicidal activity (Table A); settings: Abutilon theophrasti, pre-emergence, Vele, 11.2 kg/ha, 10-14 days, read-out: herbicidal rating (% inhibition)
Procedure, shortened: as §2

## COC(=O)c1c(OC)nc(C(F)(F)Cl)c(C(=O)OC)c1CC(C)C [Compound 30, 3,5-pyridinedicarboxylic acid, 2-(chlorodifluoromethyl)-6-methoxy-4-(2-methylpropyl)-, dimethyl ester]
Bygr; 0.5605 kg/ha
  plant injury rating, Bygr: 0
Bygr; 1.1210 kg/ha
  plant injury rating, Bygr: 0
Bygr; 2.8025 kg/ha
  plant injury rating, Bygr: 2
Bygr; 5.6050 kg/ha
  plant injury rating, Bygr: 1
Bygr; 8.4075 kg/ha
  plant injury rating, Bygr: 1
Bygr; 11.2100 kg/ha
  plant injury rating, Bygr: 1
Whez; 0.5605 kg/ha
  plant injury rating, Whez: 0
Whez; 1.1210 kg/ha
  plant injury rating, Whez: 0
Whez; 2.8025 kg/ha
  plant injury rating, Whez: 0
Whez; 5.6050 kg/ha
  plant injury rating, Whez: 0
Whez; 8.4075 kg/ha
  plant injury rating, Whez: 0
Whez; 11.2100 kg/ha
  plant injury rating, Whez: 0
Rice; 0.5605 kg/ha
  plant injury rating, Rice: 0
Rice; 1.1210 kg/ha
  plant injury rating, Rice: 0
Rice; 2.8025 kg/ha
  plant injury rating, Rice: 0
Rice; 5.6050 kg/ha
  plant injury rating, Rice: 0
Rice; 8.4075 kg/ha
  plant injury rating, Rice: 0
Rice; 11.2100 kg/ha
  plant injury rating, Rice: 0
Prmi; 0.5605 kg/ha
  plant injury rating, Prmi: 0
Prmi; 1.1210 kg/ha
  plant injury rating, Prmi: 0
Prmi; 2.8025 kg/ha
  plant injury rating, Prmi: 1
Prmi; 5.6050 kg/ha
  plant injury rating, Prmi: 0
Prmi; 8.4075 kg/ha
  plant injury rating, Prmi: 0
Prmi; 11.2100 kg/ha
  plant injury rating, Prmi: 0
Grft; 0.5605 kg/ha
  plant injury rating, Grft: 1
Grft; 1.1210 kg/ha
  plant injury rating, Grft: 0
Grft; 2.8025 kg/ha
  plant injury rating, Grft: 2
Grft; 5.6050 kg/ha
  plant injury rating, Grft: 2
Grft; 8.4075 kg/ha
  plant injury rating, Grft: 1
Grft; 11.2100 kg/ha
  plant injury rating, Grft: 1
Mogl; 0.5605 kg/ha
  plant injury rating, Mogl: 1
Mogl; 1.1210 kg/ha
  plant injury rating, Mogl: 1
Mogl; 2.8025 kg/ha
  plant injury rating, Mogl: 1
Mogl; 5.6050 kg/ha
  plant injury rating, Mogl: 1
Mogl; 8.4075 kg/ha
  plant injury rating, Mogl: 1
Mogl; 11.2100 kg/ha
  plant injury rating, Mogl: 2
Grso; 0.5605 kg/ha
  plant injury rating, Grso: 0
Grso; 1.1210 kg/ha
  plant injury rating, Grso: 0
Grso; 2.8025 kg/ha
  plant injury rating, Grso: 1
Grso; 5.6050 kg/ha
  plant injury rating, Grso: 1
Grso; 8.4075 kg/ha
  plant injury rating, Grso: 1
Grso; 11.2100 kg/ha
  plant injury rating, Grso: 1
Cobu; 0.5605 kg/ha
  plant injury rating, Cobu: 0
Cobu; 1.1210 kg/ha
  plant injury rating, Cobu: 0
Cobu; 2.8025 kg/ha
  plant injury rating, Cobu: 1
Cobu; 5.6050 kg/ha
  plant injury rating, Cobu: 1
Cobu; 8.4075 kg/ha
  plant injury rating, Cobu: 2
Cobu; 11.2100 kg/ha
  plant injury rating, Cobu: 2
Lacg; 0.5605 kg/ha
  plant injury rating, Lacg: 1
Lacg; 1.1210 kg/ha
  plant injury rating, Lacg: 0
Lacg; 2.8025 kg/ha
  plant injury rating, Lacg: 2
Lacg; 5.6050 kg/ha
  plant injury rating, Lacg: 2
Lacg; 8.4075 kg/ha
  plant injury rating, Lacg: 1
Lacg; 11.2100 kg/ha
  plant injury rating, Lacg: 1
Corn; 0.5605 kg/ha
  plant injury rating, Corn: 1
Corn; 1.1210 kg/ha
  plant injury rating, Corn: 1
Corn; 2.8025 kg/ha
  plant injury rating, Corn: 2
Corn; 5.6050 kg/ha
  plant injury rating, Corn: 1
Corn; 8.4075 kg/ha
  plant injury rating, Corn: 1
Corn; 11.2100 kg/ha
  plant injury rating, Corn: 2
Sobe; 0.5605 kg/ha
  plant injury rating, Sobe: 0
Sobe; 1.1210 kg/ha
  plant injury rating, Sobe: 1
Sobe; 2.8025 kg/ha
  plant injury rating, Sobe: 1
Sobe; 5.6050 kg/ha
  plant injury rating, Sobe: 1
Sobe; 8.4075 kg/ha
  plant injury rating, Sobe: 1
Sobe; 11.2100 kg/ha
  plant injury rating, Sobe: 1
Downy Brome
  inhibition at 11200 g/ha: 75 to 100%
Morningglory
  inhibition at 11200 g/ha: 75 to 100%
Cocklebur
  inhibition at 11200 g/ha: 25 to 49%
Barnyardgrass
  inhibition at 11200 g/ha: 75 to 100%
Yellow Nutsedge
  inhibition at 11200 g/ha: 50 to 74%
Velvetleaf
  inhibition at 11200 g/ha: 75 to 100%
